Laboratory results published in patent US11000033B2, “Ketone or oxime compound, and herbicide” (NISSAN CHEMICAL CORPORATION, priority 2014, dated 2021).

Assays:
Type in all cases: in vivo
[1] = test system: Echinochloa oryzacola Vasing.; experiment: Test Example 1: herbicidal activity, application before weed generation in submerged conditions (symbol A); settings: application herbicide amount 320 g/ha
Procedure, shortened: (§1)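 Ratings (5: ≥90%, near complete withering; 4: 70–<90%; 3: 40–<70%; 2: 20–<40%; 1: 5–<20%; 0: ≤5%) were assigned 3 weeks after the diluted emulsion was applied to the water surface of freshly sown, submerged pots.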

[2] = test system: Monochoria vaginalis; experiment: Test Example 1: herbicidal activity, application before weed generation in submerged conditions (symbol C); settings: application herbicide amount 320 g/ha
Procedure, shortened: as §1

[3] = test system: Echinochloa oryzacola Vasing.; experiment: Test Example 2: herbicidal activity, application during weed generation in submerged conditions (symbol A); settings: Table 23; application herbicide amount 320 g/ha; grade 0-5 by criteria of Test Example 1
Procedure, shortened: (§2)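 Seeds sown in flooded alluvial soil (4 cm water) were grown in a 25-30° C greenhouse. At the one- to two-leaf stage, diluted emulsion of compound was applied to the water surface at a predetermined rate. Effect was scored 3 weeks later.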

[4] = test system: Scirpus juncoides; experiment: Test Example 2: herbicidal activity, application during weed generation in submerged conditions (symbol B); settings: Table 23; application herbicide amount 320 g/ha; grade 0-5 by criteria of Test Example 1
Procedure, shortened: as §2

[5] = test system: Monochoria vaginalis; experiment: Test Example 2: herbicidal activity, application during weed generation in submerged conditions (symbol C); settings: Table 23; application herbicide amount 320 g/ha; grade 0-5 by criteria of Test Example 1
Procedure, shortened: as §2

[6] = test system: Digitaria ciliaris; experiment: Test Example 4: herbicidal effect by soil treatment (symbol F); settings: for F (Digitaria ciliaris) herbicidal effect grade: application herbicide amount 320 g/ha
Procedure, shortened: (§3)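 Seeds were sown in sterilized diluvial soil, covered with about 1.5 cm of soil, and the soil surface was sprayed with a water-diluted emulsion of the compound at a predetermined rate. Plants grew in a greenhouse at 25° C. to 30° C.; effects were scored visually 3 weeks after application.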

[7] = test system: Avena fatua; experiment: Test Example 4: herbicidal effect by soil treatment (symbol I); settings: for I (Avena fatua) herbicidal effect grade: application herbicide amount 320 g/ha
Procedure, shortened: as §3

[8] = test system: Alopecurus myosuroides; experiment: Test Example 4: herbicidal effect by soil treatment (symbol J); settings: for J (Alopecurus myosuroides) herbicidal effect grade: application herbicide amount 320 g/ha
Procedure, shortened: as §3

[9] = test system: Abutilon theophrasti; experiment: Test Example 4: herbicidal effect by soil treatment (symbol M); settings: for M (Abutilon theophrasti) herbicidal effect grade: application herbicide amount 320 g/ha
Procedure, shortened: as §3

[10] = test system: Chenopodium album; experiment: Test Example 4: herbicidal effect by soil treatment (symbol O); settings: for O (Chenopodium album) herbicidal effect grade: application herbicide amount 320 g/ha
Procedure, shortened: as §3

[11] = test system: Galium spurium; experiment: Test Example 4: herbicidal effect by soil treatment (symbol Q); settings: for Q (Galium spurium) herbicidal effect grade: application herbicide amount 320 g/ha
Procedure, shortened: as §3

[12] = test system: rice; experiment: Test Example 4: effect on crop by soil treatment (symbol b); settings: for b (directly sowed rice plant) effect on crop grade: application herbicide amount 320 g/ha
Procedure, shortened: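 Crop seeds, among them rice, wheat, beet and rapeseed, were sown in sterilized diluvial soil and covered with about 1.5 cm of soil. Boxes were kept in a greenhouse at 25° C. to 30° C. for plant growth.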

[13] = test system: Echinochloa crus-galli var. crus-galli; experiment: Test Example 5: herbicidal effect by foliage application, plastic box (symbol H); settings: 320 g/ha, 3 weeks after application
Procedure, shortened: (§4)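 Sowing in sterilized diluvial soil, 14 days' greenhouse growth at 25° C. to 30° C., then uniform small-sprayer foliar application of aqueous emulsion dilution; plants scored three weeks afterwards.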

[14] = test system: Abutilon theophrasti; experiment: Test Example 5: herbicidal effect by foliage application, plastic box (symbol M); settings: 320 g/ha, 3 weeks after application
Procedure, shortened: as §4

[15] = test system: Amaranthus retroflexus; experiment: Test Example 5: herbicidal effect by foliage application, plastic box (symbol N); settings: 320 g/ha, 3 weeks after application
Procedure, shortened: as §4

[16] = test system: beet; experiment: Test Example 5: effect on crop by foliage application, plastic box (symbol f); settings: 320 g/ha, 3 weeks after application
Procedure, shortened: (§5)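 Crop and weed seeds sown in spots in sterilized diluvial soil in plastic boxes and covered with about 1.5 cm soil. Plants raised in a greenhouse at 25° C. to 30° C. for foliar application.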

[17] = test system: rapeseed; experiment: Test Example 5: effect on crop by foliage application, plastic box (symbol g); settings: 320 g/ha, 3 weeks after application
Procedure, shortened: as §5

In the case of `CON=C(C)CC1CC(OC(=O)C(C)(C)Oc2ccc(Cl)cc2)=C(c2c(C)cc(C)cc2C)C1=O` (stereo not drawn) [1-051], the “Herbicidal effect grade, A: Echinochloa oryzacola Vasing.” value [1] is reported as 5 (Herbicidal ratio of 90% or more (almost completely withered)), the “Herbicidal effect grade, C: Monochoria vaginalis” value (“Herbicidal effect grade, C” for short) [2] is reported as 0 (Herbicidal ratio of 5% or lower (almost no effect)) and the “Herbicidal effect grade, A: Echinochloa oryzacola Vasing.” value [3] is reported as 5 (Herbicidal ratio of 90% or more (almost completely withered)). For the same compound, the “Herbicidal effect grade, B: Scirpus juncoides” value (from here on “Herbicidal effect grade, B”) [4] was 5 (Herbicidal ratio of 90% or more (almost completely withered)), the “Herbicidal effect grade, C” value [5] was 3 (Herbicidal ratio of 40% or higher and lower than 70%) and the “F (Digitaria ciliaris) herbicidal effect grade” value [6] was 5 (Herbicidal ratio of 90% or more (almost completely withered)). The “I (Avena fatua) herbicidal effect grade” value [7] was 3 (Herbicidal ratio of 40% or higher and lower than 70%), the “J (Alopecurus myosuroides) herbicidal effect grade” value [8] was 5 (Herbicidal ratio of 90% or more (almost completely withered)) and the “M (Abutilon theophrasti) herbicidal effect grade” value [9] was 5 (Herbicidal ratio of 90% or more (almost completely withered)). For the same compound, the “O (Chenopodium album) herbicidal effect grade” value [10] was 0 (Herbicidal ratio of 5% or lower (almost no effect)), the “Q (Galium spurium) herbicidal effect grade” value [11] was 0 (Herbicidal ratio of 5% or lower (almost no effect)) and the “b (directly sowed rice plant) effect on crop grade” value [12] was 5 (Herbicidal ratio of 90% or more (almost completely withered)). The “H: Echinochloa crus-galli var. crus-galli, herbicidal effect grade” value [13] was 5 (Herbicidal ratio of 90% or more (almost completely withered)), the “M: Abutilon theophrasti, herbicidal effect grade” value [14] was 4 (Herbicidal ratio of 70% or higher and lower than 90%) and the “N: Amaranthus retroflexus, herbicidal effect grade” value [15] was 1 (Herbicidal ratio of 5% or higher and lower than 20%). The “f: beet, effect on crop grade” value [16] was 0 (Herbicidal ratio of 5% or lower (almost no effect)) and the “g: rapeseed, effect on crop grade” value [17] was 4 (Herbicidal ratio of 70% or higher and lower than 90%).
With `CCC(CC1CC(O)=C(c2c(C)cc(C)cc2C)C1=O)=NOC` (stereo not drawn) [1-038] the “Herbicidal effect grade, A: Echinochloa oryzacola Vasing.” value [1] was 5 (Herbicidal ratio of 90% or more (almost completely withered)), the “Herbicidal effect grade, C” value [2] was 3 (Herbicidal ratio of 40% or higher and lower than 70%) and the “Herbicidal effect grade, A: Echinochloa oryzacola Vasing.” value [3] was 5 (Herbicidal ratio of 90% or more (almost completely withered)). The “Herbicidal effect grade, B” value [4] was 5 (Herbicidal ratio of 90% or more (almost completely withered)), the “Herbicidal effect grade, C” value [5] was 4 (Herbicidal ratio of 70% or higher and lower than 90%) and the “F (Digitaria ciliaris) herbicidal effect grade” value [6] was 5 (Herbicidal ratio of 90% or more (almost completely withered)). The “I (Avena fatua) herbicidal effect grade” value [7] was 0 (Herbicidal ratio of 5% or lower (almost no effect)), the “J (Alopecurus myosuroides) herbicidal effect grade” value [8] was 5 (Herbicidal ratio of 90% or more (almost completely withered)) and the “M (Abutilon theophrasti) herbicidal effect grade” value [9] was 4 (Herbicidal ratio of 70% or higher and lower than 90%). The “O (Chenopodium album) herbicidal effect grade” value [10] was 0 (Herbicidal ratio of 5% or lower (almost no effect)), the “Q (Galium spurium) herbicidal effect grade” value [11] was 0 (Herbicidal ratio of 5% or lower (almost no effect)) and the “b (directly sowed rice plant) effect on crop grade” value [12] was 5 (Herbicidal ratio of 90% or more (almost completely withered)). The “H: Echinochloa crus-galli var. crus-galli, herbicidal effect grade” value [13] was 5 (Herbicidal ratio of 90% or more (almost completely withered)), the “M: Abutilon theophrasti, herbicidal effect grade” value [14] was 4 (Herbicidal ratio of 70% or higher and lower than 90%) and the “N: Amaranthus retroflexus, herbicidal effect grade” value [15] was 2 (Herbicidal ratio of 20% or higher and lower than 40%). The “f: beet, effect on crop grade” value [16] was 1 (Herbicidal ratio of 5% or higher and lower than 20%) and the “g: rapeseed, effect on crop grade” value [17] was 4 (Herbicidal ratio of 70% or higher and lower than 90%).
For `CC#CC(=O)OC1=C(c2c(C)cc(C)cc2C)C(=O)C(CC(C)=NOC)C1` (stereo not drawn) [1-095], the “Herbicidal effect grade, A: Echinochloa oryzacola Vasing.” value [1] was 5 (Herbicidal ratio of 90% or more (almost completely withered)), the “Herbicidal effect grade, C” value [2] was 2 (Herbicidal ratio of 20% or higher and lower than 40%) and the “Herbicidal effect grade, A: Echinochloa oryzacola Vasing.” value [3] was 5 (Herbicidal ratio of 90% or more (almost completely withered)). For the same compound, the “Herbicidal effect grade, B” value [4] was 4 (Herbicidal ratio of 70% or higher and lower than 90%), the “Herbicidal effect grade, C” value [5] was 1 (Herbicidal ratio of 5% or higher and lower than 20%) and the “F: Digitaria ciliaris, herbicidal effect grade” value ([6]; 320 g/ha) was 5 (Herbicidal ratio of 90% or more (almost completely withered)). For the same compound, the “I: Avena fatua, herbicidal effect grade” value ([7]; 320 g/ha) was 3 (Herbicidal ratio of 40% or higher and lower than 70%), the “J: Alopecurus myosuroides, herbicidal effect grade” value ([8]; 320 g/ha) was 5 (Herbicidal ratio of 90% or more (almost completely withered)) and the “M: Abutilon theophrasti, herbicidal effect grade” value ([9]; 320 g/ha) was 4 (Herbicidal ratio of 70% or higher and lower than 90%). For the same compound, the “O: Chenopodium album, herbicidal effect grade” value ([10]; 320 g/ha) was 0 (Herbicidal ratio of 5% or lower (almost no effect)), the “Q: Galium spurium, herbicidal effect grade” value ([11]; 320 g/ha) was 0 (Herbicidal ratio of 5% or lower (almost no effect)) and the “b: directly sowed rice plant, effect grade on crop” value ([12]; 320 g/ha) was 5 (Herbicidal ratio of 90% or more (almost completely withered)). For the same compound, the “H: Echinochloa crus-galli var. crus-galli, herbicidal effect (criteria 0-5)” value [13] was 5 (Herbicidal ratio of 90% or more (almost completely withered)), the “M: Abutilon theophrasti, herbicidal effect (criteria 0-5)” value [14] was 4 (Herbicidal ratio of 70% or higher and lower than 90%) and the “N: Amaranthus retroflexus, herbicidal effect (criteria 0-5)” value [15] was 3 (Herbicidal ratio of 40% or higher and lower than 70%). The “f: beet, effect on crop (criteria 0-5)” value [16] was 0 (Herbicidal ratio of 5% or lower (almost no effect)) and the “g: rapeseed, effect on crop (criteria 0-5)” value [17] was 4 (Herbicidal ratio of 70% or higher and lower than 90%).
